The results in this text go back to article PMC5740381 (Antimicrobial Agents and Chemotherapy, 2017).

In assay [1] the test system is HIV-1 pNL4-3. As to the kind of experiment: HIV-1 5-day cytoprotection assay in MT4 cells. The conditions noted are these: Human immunodeficiency virus 1, HIV-1 pNL4-3 infectivity, HIV-1 PI alone. Format: cell-based, human immunodeficiency virus type 1. The method, then:
. […]. The plates were incubated at 37°C for 5 days. After this period, 25 μl MTT reagent (4 mg/ml) was added to the cells, and the plates were incubated for 4 h. The MTT formazan formed in the cells was solubilized by 50 μl of acidified SDS overnight. The plates were read at wavelengths of 570 and 650 nm using a spectrophotometer. […]

In assay [2] the test system is genotype 1b Con1 replicon cells. As to the kind of experiment: Checkerboard combination assay (MacSynergy II). Type of assay: cell-based, Hepatitis C virus. How it is done: […]. The resulting data were analyzed using the MacSynergy II program ([34], [51], [52]). The assignment of the synergy or antagonism volumes was based on the guidelines provided in the MacSynergy II program user's manual ([34]).

In assay [3] the target is T1, GT6a / 6a Wild type.
T1 construct: NS3 N-terminal region in chimeric replicon
Briefly: Luciferase assay of HCV replication in transient-transfection replicons with wild-type or substituted NS3 (at least 3 transfections). Type of assay: cell-based, Huh-7. To be noted: SD, n = 3.

Assay [4] concerns the target T2, 4a R155C.
T2 construct: in chimeric transient replicon
The assay is described as above. Type of assay: cell-based, Huh-7. The conditions noted are these: SD, n = 3.

Assay [5] addresses T3, GT3a / 3a Wild type.
T3 construct: NS3 N-terminal region in chimeric replicon
The assay is described as above. To be noted: SD, n = 3. Format: cell-based, Huh-7.

In assay [6] the target is T4, 2b D168A.
T4 construct: in genotype 2a JFH-1 chimeric transient replicon
The assay is described as above. Type of assay: cell-based, Huh-7. The conditions noted are these: SD, n = 3.

The target of assay [7] is T5, GT2b / 2b Wild type.
T5 construct: NS3 protease domain (N-terminal 251 aa) in genotype 2a JFH-1 chimeric replicon
The description is as above. Format: cell-based, Huh-7. The conditions noted are these: SD, n = 3.

The target in assay [8] is T6, 4a A156V.
T6 construct: in chimeric transient replicon
The assay is described as above. Format: cell-based, Huh-7. The conditions noted are these: SD, n = 3.

For assay [9], the target named is T7, 2b D168V.
T7 construct: in genotype 2a JFH-1 chimeric transient replicon
The description is as above. To be noted: SD, n = 3. Format: cell-based, Huh-7.

Assay [10] deals with T8, 3a Q168R.
T8 construct: in chimeric transient replicon
The description is as above. The conditions noted are these: SD, n = 3. Type of assay: cell-based, Huh-7.

Assay [11] has as its target T9, 4a D168H.
T9 construct: in chimeric transient replicon
Described as above. Type of assay: cell-based, Huh-7. To be noted: SD, n = 3.

Assay [12] deals with T3, GT3a / 3a Wild type. Briefly: Luciferase reporter assay of HCV replication in stable subgenomic replicon cells, 5% fetal bovine serum, no human plasma (at least 3 experiments). Format: cell-based, Huh-7. The conditions noted are these: SD, n = 3; read-out: HCV stable replicons in 0% human plasma, Mean EC50 ± SD. The text has this: (§1) . Five of these nine cell lines have been described previously, including those transfected with genotypes 1a H77, 1b Con1, 3a, 4a, and 6a ([28]). The other four cell lines were established by transfecting cells with a nonchimeric genotype 2a JFH-1 replicon (GenBank accession number AB047639), two genotype 2a JFH-1 chimeric replicons containing either a genotype 2b NS3 protease domain (N-terminal 251 amino acids) or a sequence encoding full-length NS3 through the first 39 amino acids of NS5B from genotype 5a (strain SA13), and one chimeric replicon with a genotype 1b Con1 backbone containing full-length NS3 and NS4A sequences from genotype 6e. The genotype 2b and 6e NS3 sequences were each synthetically constructed based on a consensus sequence derived from the alignment of 15 genotype 2b and 4 genotype 6e sequences, respectively. All replicon constructs were bicistronic subgenomic replicons similar to those described by Bartenschlager and coworkers, and the replicon cell lines were generated by introducing these constructs into cells of an Huh-7 human hepatoma-derived cell line ([50]). The inhibitory effect of the PIs on HCV replication in replicon cells was determined in Dulbecco's modified Eagle medium containing 5% fetal bovine serum with or without 40% human plasma (Bioreclamation, Westbury, NY). The EC50s were determined using nonlinear regression curve fitting as described previously ([33]).

Assay [13] concerns T1, GT6a / 6a Wild type. Described as above. Type of assay: cell-based, Huh-7. The conditions noted are these: SD, n = 3; read-out: HCV stable replicons in 0% human plasma, Mean EC50 ± SD.
Source text: as §1

Assay [14] relates to T10, GT6e.
T10 construct: full-length NS3 and NS4A in genotype 1b Con1 chimeric replicon
Described as above. Format: cell-based, Huh-7. The conditions noted are these: SD, n = 3; read-out: HCV stable replicons in 0% human plasma, Mean EC50 ± SD.
Source text: as §1

Assay [15] concerns T11, GT4a / 4a Wild type.
T11 construct: NS3 N-terminal region in chimeric replicon
The description is as above. Type of assay: cell-based, Huh-7. The conditions noted are these: SD, n = 3; read-out: HCV stable replicons in 0% human plasma, Mean EC50 ± SD.
Source text: as §1
Background: In antiviral work, replicon cells carry a viral genome segment that copies itself.

Assay [16] deals with T12, 6a D168A.
T12 construct: in chimeric transient replicon
Briefly: Luciferase assay of HCV replication in transient-transfection replicons with wild-type or substituted NS3 (at least 3 transfections). Type of assay: cell-based, Huh-7. The conditions noted are these: SD, n = 3.

Assay [17] addresses T13, 2b A156V.
T13 construct: in genotype 2a JFH-1 chimeric transient replicon
Described as above. Type of assay: cell-based, Huh-7. To be noted: SD, n = 3.

In assay [18] the target is T14, 3a A156G.
T14 construct: in chimeric transient replicon
The assay is described as above. Type of assay: cell-based, Huh-7. The conditions noted are these: SD, n = 3.

Assay [19] deals with T15, 2b D168E.
T15 construct: in genotype 2a JFH-1 chimeric transient replicon
The description is as above. Type of assay: cell-based, Huh-7. The conditions noted are these: SD, n = 3.

In assay [20] the target is T16, 4a A156T.
T16 construct: in chimeric transient replicon
Described as above. Type of assay: cell-based, Huh-7. The conditions noted are these: SD, n = 3.

Assay [21] has as its target T11, GT4a / 4a Wild type. The description is as above. Format: cell-based, Huh-7. To be noted: SD, n = 3.
Assay [22] addresses T17, 2b A156T.
T17 construct: in genotype 2a JFH-1 chimeric transient replicon
The assay is described as above. The conditions noted are these: SD, n = 3. Format: cell-based, Huh-7.

The target of assay [23] is T18, 6a D168V.
T18 construct: in chimeric transient replicon
Described as above. Type of assay: cell-based, Huh-7. To be noted: SD, n = 3.

In assay [24] the target is T19, 4d Wild type.
T19 construct: NS3 in transient replicon
The description is as above. Format: cell-based, Huh-7. To be noted: SD, n = 3.

The target of assay [25] is T20, 4a D168V.
T20 construct: in chimeric transient replicon
The assay is described as above. Type of assay: cell-based, Huh-7. To be noted: SD, n = 3.

The target in assay [26] is T21, 6a D168H.
T21 construct: in chimeric transient replicon
Described as above. Format: cell-based, Huh-7. The conditions noted are these: SD, n = 3.

In assay [27] the test system is 4d D168V. To be noted: read-out: Mean EC50 ± SD, n = 3. The method, then:
Mutagenesis was performed using a Change-IT multiple-mutation site-directed mutagenesis kit (USB, Cleveland, OH) or by cloning a synthesized DNA fragment encoding the amino acid substitution(s). The genotype 1a and 1b replicon shuttle vectors used for the introduction of the substitutions of interest in the NS3, NS5A, or NS5B gene for transient-transfection assays have been described previously ([28], [33]). The replicon shuttle vectors used for the introduction of substitutions in NS3 genes from other genotypes were similar to the stable replicon cell line constructs described above, except for the absence of the neo gene. After mutagenesis, the plasmids were linearized and RNA was transcribed and then used to transfect Huh-7 cells. Inhibition of HCV replication by the HCV inhibitors was measured by luciferase assay, as described above. Replication efficiency was calculated as a percentage of wild-type replication, as described previously ([28]).

As to `Cc1cccc(C)c1OCC(=O)N[C@@H](Cc1ccccc1)[C@@H](O)C[C@H](Cc1ccccc1)NC(=O)[C@H](C(C)C)N1CCCNC1=O` [Lopinavir], the EC50 in [1] amounted to 0.023 µM.

Take IFN-α: the EC50 in assay [2] (genotype 1b replicon cells) came out at 1.2 IU/ml.

Take `NC(=O)c1ncn([C@@H]2O[C@H](CO)[C@@H](O)[C@H]2O)n1` [RBV, reference compound]: the EC50 in [2] (Hepatitis C virus) came out at 19 µM.

Regarding `C=C[C@@H]1C[C@]1(NC(=O)[C@@H]1C[C@@H]2CN1C(=O)[C@H](C(C)(C)C)NC(=O)O[C@@H]1C[C@H]1CCCCCc1nc3ccc(OC)cc3nc1O2)C(=O)NS(=O)(=O)C1CC1` [Grazoprevir, grazoprevir (MK-5172)], the EC50 in [3] turned out to be 0.0001 ± 2e-05 µM; in assay [4], 0.002 ± 0.00027 µM; in assay [5], 0.047 ± 0.014 µM; in assay [6] it was 0.347 ± 0.113 µM; in assay [7], 0.0061 ± 0.0013 µM; in assay [8], 0.169 ± 0.027 µM. In addition, the EC50 is 0.088 ± 0.019 µM in [9]; 0.165 ± 0.046 µM in [10]; 0.025 ± 0.0063 µM in [11]; 0.083 ± 0.018 µM in assay [12]; 0.00089 ± 0.00032 µM in assay [13]; 0.00025 ± 1e-05 µM in assay [14]. Moreover, the EC50 was found to be 0.0012 ± 0.00031 µM in assay [15]; 0.103 ± 0.034 µM in assay [16]; 2.89 µM in assay [17]; 0.614 ± 0.148 µM in [18]; 0.035 ± 0.006 µM in assay [19]; 0.296 ± 0.022 µM in assay [20]. Further, the EC50 in [21] was found to be 0.00028 ± 4e-05 µM; in [22], 1.56 µM; in [23] it was 0.024 ± 0.0012 µM; in [24], 0.00018 ± 1e-05 µM; in assay [25], 0.013 ± 0.0011 µM; in assay [26] it was 0.045 ± 0.0041 µM. Also, the EC50 in [27] stood at 0.0025 ± 8e-05 µM.

Take `CC(C)CN(C[C@@H](O)[C@H](Cc1ccccc1)NC(=O)O[C@H]1CO[C@H]2OCC[C@H]21)S(=O)(=O)c1ccc(N)cc1` [Darunavir]: the EC50 in assay [1] came out at 0.01 µM.
